Publication PMC5118696, “Identification of inhibitors that dually target the new permeability pathway and dihydroorotate dehydrogenase in the blood stage of Plasmodium falciparum” (Scientific Reports, 2016)
Where two headings read alike, the source gives them in different places.

What was measured:
[1] = tested on: Hyp1-NLuc Plasmodium falciparum-infected erythrocytes (new permeability pathway, NPP); assay: microbe, parasite or virus in culture; conditions: Erythrocyte, 0.33 h, read-out: % of control remaining
[2] = tested on: Hyp1-NLuc Plasmodium falciparum-infected erythrocytes (new permeability pathway, NPP); assay: microbe, parasite or virus in culture; conditions: Erythrocyte, 0.33 h, read-out: Mean RLU at 28 min (As % of DMSO control)

Row | Compound | activity at 2 µM [1] | activity at 2 µM [2]
1 | CC(C)=CCN1CCC(C(=O)Nc2ccc(-c3nc4ccccc4[nH]3)cc2)CC1 [MMV665946] | 121% | 106%
2 | Cc1cc(Nc2ccc3ccccc3c2)n2ncnc2n1 [MMV011099] | 99.8% | 99.9%
3 | O=C(Nc1ccc(Cl)cc1C(=O)Nc1ccncc1)c1ccc(Cl)cc1Cl [MMV666057] | 119% | 105%
4 | COc1ccc(C=C2SC(=N)N(c3ccccc3OC)C2=O)cc1 [MMV666691] | 26.4% | 61.9%
5 | Cc1cccc(-n2ncc3c(=O)[nH]c(-n4nc(C)cc4NC(=O)c4cc5ccccc5o4)nc32)c1 [MMV403679] | 109% | 109%
6 | O=C(Nc1ccc(Cl)cc1)N1CCN(c2ccc3nncn3n2)CC1 [MMV665917] | 27.3% | 53.8%
7 | COc1ccc(C2C(C(=O)Nc3cccc(OC)c3)c3ccccc3C(=O)N2C2CCCCC2)cc1 (centres unmarked) [MMV008455] | 115% | 107%
8 | Oc1c(CN2CCN(c3ccccc3F)CC2)cc(Br)c2cccnc12 [MMV000760] | 114% | 112%
9 | Nc1ccn(C2O[C@H](CO)[C@@H](O)[C@H]2O)c(=O)n1 (some centres unmarked) [MMV638723] | 88.6% | 86.2%
10 | COc1ccc(-c2nc3cc(Cc4ccc5[nH]c(-c6ccc(OC)cc6)nc5c4)ccc3[nH]2)cc1 [MMV007384] | 45.6% | 82.1%
11 | Fc1ccc2[nH]c3c(NCCCN4CCOCC4)ncnc3c2c1 [MMV019871] | 102% | 106%
12 | O=C(Cc1ccccc1)NC(c1ccc(Cl)cc1)c1c(O)ccc2ccccc12 (centres unmarked) [MMV665972] | 69.4% | 68.8%
13 | CCN(CC)CCCNc1nc(-c2ccc(Cl)cc2)nc2ccccc12 [MMV665961] | 101% | 103%
14 | COc1cccc(NC(=O)Cn2c(C)c(C#N)c3ccccc32)c1 [MMV665826] | 109% | 101%
15 | O=c1nc(C=Cc2ccc(Cl)cc2)oc2ccccc12 [MMV007977] | 105% | 110%
16 | Cc1ccc2c(C)nc(Nc3nc(C)cc(-c4ccccc4)n3)nc2c1 [MMV007041] | 98.8% | 104%
17 | CN(C)c1ccc(C=Cc2nc(=O)c3ccccc3o2)cc1 [MMV006309] | 19% | 36.4%
18 | Cc1ccc(Cn2c(N3CCC(C(=O)NCc4cccs4)CC3)nc3ccccc32)cc1 [MMV007564] | 104% | 96.6%
19 | Cc1ccc(Cl)cc1N1CCN(CCCNC(=O)C2CCN(c3nc4ccccc4[nH]3)CC2)CC1 [MMV019746] | 112% | 105%
20 | CCC(O)c1ccc(Br)cc1NC(=O)c1cccc(Cl)c1 (centres unmarked) [MMV020654] | 105% | 113%
21 | Cc1cc(C=C2SC(=Nc3ccccc3)N(C3CCCC3)C2=O)c(C)n1-c1ccc(Cl)cc1 [MMV666688] | 98.7% | 99.9%
22 | COc1ccc(C(O)(CCC(C)C)C(CN2CCOCC2)c2ccc(Cl)cc2)cc1 (centres unmarked) [MMV000617] | 131% | 116%
23 | CC(C)c1ccc(CNCC(O)c2ccccc2)cc1 (centres unmarked) [MMV001049] | 116% | 113%
24 | CCCCOc1ccc(C(=O)Nc2cc(C)on2)cc1 [MMV007906] | 115% | 117%

Row | Compound | activity at 2 µM [1] | activity at 2 µM [2]
25 | COc1ccc2c(c1)C1(Nc3ccccc3-c3nc4ccccc4n31)C(=O)N2 (centres unmarked) [MMV396749] | 104% | 103%
26 | Cc1sc(NC(=O)c2ccco2)c(C(c2cccnc2)N2CCC(Cc3ccccc3)CC2)c1C (centres unmarked) [MMV396663] | 92.5% | 97%
27 | COc1ccc(Nc2nc(NN=Cc3ccc(O)cc3)nc(Nc3ccc([N+](=O)[O-])cc3)n2)cc1 [MMV666689] | 93.1% | 95.2%
28 | CN(C)CCCNCc1ccc(-c2ccc(F)c(Cl)c2)o1 [MMV020505] | 106% | 105%
29 | COc1ccc(-c2cn3c(C(=O)Nc4ccccc4Cl)c(-c4ccccc4)c4c3n2CCCC4)cc1 [MMV020403] | 106% | 103%
30 | COCCN(C(=O)Cc1cccs1)C(C(=O)NCc1ccc(OC)cc1)c1ccc(C(C)C)cc1 (centres unmarked) [MMV666105] | 113% | 100%
31 | C=CCc1c(C)nc2ccccc2c1O [MMV006913] | 115% | 116%
32 | COc1cccc(NC(=O)[C@H](C(C)C)n2c(=O)[nH]c3ccccc3c2=O)c1 [MMV665878] | 101% | 102%
33 | CCCCN(CCCC)S(=O)(=O)c1ccc(NC(=O)c2ccco2)cc1 [MMV007881] | 96.9% | 104%
34 | O=C(Nc1ccsc1C(=O)NC1CCCCC1)c1ccc(F)cc1 [MMV665939] | 115% | 104%
35 | Cc1c(C)n(CC(O)CNC2CCCCC2C)c2ccccc12 (centres unmarked) [MMV665806] | 108% | 106%
36 | COc1ccc(-c2cc(=O)oc3c4c(ccc23)OCN(Cc2ccc(F)cc2)C4)cc1 [MMV000604] | 106% | 104%
37 | CCOC(=O)C1CCN(C(=O)CN2C(=O)c3ccccc3C2c2c[nH]c3ccccc23)CC1 (centres unmarked) [MMV011576] | 107% | 107%
38 | COc1ccc(Nc2nc(NCc3ccccc3)c3ccccc3n2)cc1 [MMV000963] | 106% | 103%
39 | CSC1=NC(=Nc2c(C)cccc2C)C2(CCC(C(C)(C)C)CC2)N1c1ccc(Cl)cc1 (centres unmarked) [MMV666596] | 107% | 106%
40 | Cc1ccc(C)c(-c2csc(Nc3ccc(C)c(C)c3)n2)c1 [MMV007654] | 91.8% | 94.4%
41 | COc1ccc(C(=O)NC(c2ccc(Cl)cc2Cl)c2cc(Cl)c3cccnc3c2O)cc1 (centres unmarked) [MMV666054] | 106% | 101%
42 | CC(C)(C)C(=O)Nc1ccc(C(=O)Nc2cccc(-c3nc4ccccc4[nH]3)c2)cc1 [MMV665879] | 114% | 103%
43 | Cc1ccc(N2C(=O)C3C(C2=O)C2(c4ccccc4)C(=O)C3(c3ccccc3)C(c3ccccc3)=C2c2ccccc2)cc1 (centres unmarked) [MMV666062] | 97.6% | 106%
44 | O=C(Nc1ccc(Br)cc1)Nc1cccc(Cl)c1 [MMV001318] | 107% | 105%
45 | Cc1cc(N2CCN(C3CCCC3)CC2)n2c(nc3ccccc32)c1C#N [MMV006706] | 117% | 118%
46 | Cc1ccc(NC(=O)Nc2cccc(Cl)c2)cc1F [MMV000911] | 114% | 115%
47 | CCOc1cc(Cl)c(C(C)NC(=O)c2ccccc2)cc1OCC (centres unmarked) [MMV665800] | 111% | 100%
48 | O=C(Nc1ccc(-c2nc3ccccc3[nH]2)cc1)c1ccc(Cl)c(Cl)c1 [MMV665840] | 107% | 109%

Row | Compound | activity at 2 µM [1] | activity at 2 µM [2]
49 | CC1CC2=C(CC1CNCCCN(C)C)C(C)(C)CCC2 (centres unmarked) [MMV665830] | 104% | 105%
50 | COc1ccc2c(=O)cc(C(Cl)(Cl)Cl)oc2c1 [MMV665820] | 102% | 105%
51 | COc1ccc(C(=O)Nc2ccc(Cl)cc2C(=O)Nc2ccncc2)cc1 [MMV665799] | 111% | 100%
52 | COc1ccc(C2c3ccc4ccccc4c3Oc3ncn(CCCn4ccnc4)c(=N)c32)cc1OC (centres unmarked) [MMV667490] | 98.4% | 102%
53 | CCOC(=O)c1cnc2c(CC)cccc2c1O [MMV498479] | 107% | 103%
54 | CCOc1ccc(Nc2c3ccccc3nc3ccccc23)cc1 [MMV000304] | 109% | 107%
55 | Oc1ccc(Br)cc1CN1CCN(Cc2cccc(F)c2)CC1 [MMV000356] | 98.9% | 101%
56 | COc1ccc2nc(N)nc(C)c2c1 [MMV665897] | 93.5% | 103%
57 | FC(F)(F)c1cccc(Nc2nc(-c3ccccc3)nc3ncccc23)c1 [MMV665798] | 117% | 103%
58 | O=C1c2ccccc2-c2nnc(-c3ccc(Br)cc3)cc21 [MMV665934] | 97.2% | 92.6%
59 | CCCN(CCC)CC(O)COc1ccccc1C(=O)Nc1ccccc1 (centres unmarked) [MMV006455] | 104% | 105%
60 | CCOc1ccc(C=Cc2nc(=O)c3ccccc3o2)cc1 [MMV665940] | 31.3% | 61.5%
61 | CCCCCCc1cc2cc(-c3nc4ccccc4[nH]3)c(=Nc3ccccc3C)oc2cc1O [MMV666597] | 111% | 102%
62 | COc1cc(SC)ccc1C(=O)N1CCCC(C)C1 (centres unmarked) [MMV056726] | 123% | 122%
63 | CCOc1ccc(-n2cc(-c3ccccc3)c3c(SCc4cc(C)ccc4C)ncnc32)cc1 [MMV085471] | 118% | 104%
64 | CCC(c1ccccc1)c1nn2c(-c3cccs3)nnc2s1 (centres unmarked) [MMV665876] | 40.7% | 85.7%
65 | O=C(Nc1cccc(C(F)(F)F)c1)c1cc(Cl)ccc1O [MMV665807] | 105% | 99%
66 | O=C(O)C1Cc2c([nH]c3ccccc23)C(c2ccc(Cl)cc2Cl)N1 (centres unmarked) [MMV008138] | 102% | 102%
67 | O=C(NNc1cc(N2CCCC2)nc(N2CCCC2)n1)c1ccccc1 [MMV396770] | 88.7% | 101%
68 | Cc1cc(N2CCCC2)nc(Nc2ccc(NC(=O)CCc3ccccc3)cc2)n1 [MMV396669] | 76.3% | 90.3%
69 | Cc1ccc(Nc2nc(N)c3ccccc3n2)cc1Cl [MMV011522] | 99.9% | 95.7%
70 | CCOC(=O)c1cnc2ccc(Cl)cc2c1NCCCN(C)C [MMV006882] | 110% | 106%
